Test results: patent US20070049564A1 (Wyeth, priority 2005, published 2007)
In brackets after ≈: the same amount, converted by molar mass. Like-named read-outs stand apart in the source and are kept apart here.

Assays:
E. coli GC 2231 = experiment: MIC, broth microdilution; conditions: Escherichia coli, GC2231, E. coli GC 2231
E. coli GC 2203 = experiment: MIC, broth microdilution; conditions: Escherichia coli, GC2203, E. coli GC 2203
Staph. = experiment: Range of MIC for Staph. strains, including MRSA; conditions: Staphylococcus aureus, MRSA
Description: (§1) Antimicrobial susceptibility testing. The in vitro activities of the antibiotics are determined by the broth microdilution method as recommended by the National Committee for Clinical Laboratory Standards (NCCLS) (1). Mueller-Hinton II broth (MHBII)(BBL Cockeysville, Md.) is the medium employed in the testing procedures. Microtiter plates containing serial dilutions of each antimicrobial agent are inoculated with each organism to yield the appropriate density (10^5 CFU/ml) in a 100 μl final volume. The plates are incubated for 18-22 hours at 35° C. in ambient air.
Representative compounds were first incubated in mouse serum for an hour prior to the in vitro testing against a panel of selected gram-positive and gram-negative bacteria strains. All compounds were also pre-incubated in water for an hour prior to testing as control. Representative compounds of Formula I were incubated in human serum prior to MIC determination.

E. coli GC 3226 = experiment: MIC, broth microdilution; conditions: Escherichia coli, GC3226, E. coli GC 3226
E. coli GC 2236 = experiment: MIC, broth microdilution; conditions: Escherichia coli, GC2236, E. coli GC 2236
E. faecium GC 4556 = experiment: MIC, broth microdilution; conditions: Enterococcus faecium, GC4556, E. faecium GC 4556
E. coli GC 2234 = experiment: MIC, broth microdilution; conditions: Escherichia coli, GC2234, E. coli GC 2234
E. coli GC 2270 = experiment: MIC, broth microdilution; conditions: Escherichia coli, GC2270, E. coli GC 2270
E. coli GC 2233 = experiment: MIC, broth microdilution; conditions: Escherichia coli, GC2233, E. coli GC 2233
S. aureus GC 6469 = experiment: MIC, broth microdilution; conditions: Staphylococcus aureus, GC6469, S. aureus GC 6469
Description: as §1
Representative compounds were first incubated in mouse serum for an hour prior to the in vitro testing against a panel of selected gram-positive and gram-negative bacteria strains. All compounds were also pre-incubated in water for an hour prior to testing as control.

S. pyogenes GC 4563 = experiment: MIC, broth microdilution; conditions: Streptococcus pyogenes, GC4563, S. pyogenes GC 4563
S. aureus GC 6466 = experiment: MIC, broth microdilution; conditions: Staphylococcus aureus, GC6466, S. aureus GC 6466
E. faecalis GC 2265 = experiment: MIC, broth microdilution; conditions: Enterococcus faecalis, GC2265, E. faecalis GC 2265
E. coli GC 2271 = experiment: MIC, broth microdilution; conditions: Escherichia coli, GC2271, E. coli GC 2271
S. aureus GC 2216 = experiment: MIC, broth microdilution; conditions: Staphylococcus aureus, GC2216, S. aureus GC 2216
S. aureus GC 6335 = experiment: MIC, broth microdilution; conditions: Staphylococcus aureus, GC6335, S. aureus GC 6335
E. coli GC 2232 = experiment: MIC, broth microdilution; conditions: Escherichia coli, GC2232, E. coli GC 2232
E. faecium GC 2243 = experiment: MIC, broth microdilution; conditions: Enterococcus faecium, GC2243, E. faecium GC 2243
P. aeruginosa GC 2214 = experiment: MIC, broth microdilution; conditions: Pseudomonas aeruginosa, GC2214, P. aeruginosa GC 2214

SMILES: CCCN(CC(=O)Nc1cc(N(C)C)c2c(c1O)C(=O)C1=C(O)[C@]3(O)C(=O)C(C(N)=O)=C(O)[C@@H](N(C)C)[C@@H]3C[C@@H]1C2)C(=O)OCC(C)C [Example 16, isobutyl 2-{[(5aR,6aS,7S,10aS)-9-(aminocarbonyl)-4,7-bis(dimethylamino)-1,8,10a,11-tetrahydroxy-10,12-dioxo-5,5a,6,6a,7,10,10a,12-octahydrotetracen-2-yl]amino}-2-oxoethyl(propyl)carbamate]
- MIC (E. coli GC 2231; Mouse Serum pre-incubation): > 64 µg/mL
- MIC (E. coli GC 2231; Water pre-incubation): > 64 µg/mL
- MIC (E. coli GC 2203; Mouse Serum pre-incubation): 16 µg/mL (≈ 23.8 µM)
- MIC (E. coli GC 2203; Water pre-incubation): 64 µg/mL (≈ 95.3 µM)
- MIC (Staph.; read-out: Range of MIC, Staph (Mouse Serum)): 2 to 8 µg/mL (≈ 2.98 to 11.9 µM)
- MIC (Staph.; read-out: Range of MIC, Staph (Water)): 4 to 8 µg/mL (≈ 5.95 to 11.9 µM)
- MIC (E. coli GC 3226; Mouse Serum pre-incubation): 64 µg/mL (≈ 95.3 µM)
- MIC (E. coli GC 3226; Water pre-incubation): > 64 µg/mL
- MIC (E. coli GC 2236; Mouse Serum pre-incubation): 64 µg/mL (≈ 95.3 µM)
- MIC (E. coli GC 2236; Water pre-incubation): > 64 µg/mL
- MIC (E. faecium GC 4556; Mouse Serum pre-incubation): 4 µg/mL (≈ 5.95 µM)
- MIC (E. faecium GC 4556; Water pre-incubation): 8 µg/mL (≈ 11.9 µM)
- MIC (E. coli GC 2234; Mouse Serum pre-incubation): > 64 µg/mL
- MIC (E. coli GC 2234; Water pre-incubation): > 64 µg/mL
- MIC (E. coli GC 2270; Mouse Serum pre-incubation): > 64 µg/mL
- MIC (E. coli GC 2270; Water pre-incubation): > 64 µg/mL
- MIC (E. coli GC 2233; Mouse Serum pre-incubation): > 64 µg/mL
- MIC (E. coli GC 2233; Water pre-incubation): > 64 µg/mL
- MIC (S. aureus GC 6469; Mouse Serum pre-incubation): 4 µg/mL (≈ 5.95 µM)
- MIC (S. aureus GC 6469; Water pre-incubation): 8 µg/mL (≈ 11.9 µM)
- MIC (S. pyogenes GC 4563; Mouse Serum pre-incubation): 4 µg/mL (≈ 5.95 µM)
- MIC (S. pyogenes GC 4563; Water pre-incubation): 8 µg/mL (≈ 11.9 µM)
- MIC (S. aureus GC 6466; Mouse Serum pre-incubation): 4 µg/mL (≈ 5.95 µM)
- MIC (S. aureus GC 6466; Water pre-incubation): 8 µg/mL (≈ 11.9 µM)
- MIC (E. faecalis GC 2265; Mouse Serum pre-incubation): 4 µg/mL (≈ 5.95 µM)
- MIC (E. faecalis GC 2265; Water pre-incubation): 8 µg/mL (≈ 11.9 µM)
- MIC (E. coli GC 2271; Mouse Serum pre-incubation): > 64 µg/mL
- MIC (E. coli GC 2271; Water pre-incubation): > 64 µg/mL
- MIC (S. aureus GC 2216; Mouse Serum pre-incubation): 2 µg/mL (≈ 2.98 µM)
- MIC (S. aureus GC 2216; Water pre-incubation): 4 µg/mL (≈ 5.95 µM)
- MIC (S. aureus GC 6335; Mouse Serum pre-incubation): 4 µg/mL (≈ 5.95 µM)
- MIC (S. aureus GC 6335; Water pre-incubation): 4 µg/mL (≈ 5.95 µM)
- MIC (E. coli GC 2232; Mouse Serum pre-incubation): > 64 µg/mL
- MIC (E. coli GC 2232; Water pre-incubation): > 64 µg/mL
- MIC (E. faecium GC 2243; Mouse Serum pre-incubation): 4 µg/mL (≈ 5.95 µM)
- MIC (E. faecium GC 2243; Water pre-incubation): 8 µg/mL (≈ 11.9 µM)
- MIC (P. aeruginosa GC 2214; Mouse Serum pre-incubation): > 64 µg/mL
- MIC (P. aeruginosa GC 2214; Water pre-incubation): > 64 µg/mL
